Test results: PMC4374931 (PLoS ONE, 2015)
Counter-ions that a name gives are not always drawn. Like-named read-outs stand apart in the source and are kept apart here.

Legend:
in vitro = type: cell-based; settings: human
Experimental: (§1) AIZ-AR cells were seeded in 96-well plates at density 5x10^4 cells per well. […] Following the incubation, MTT assay was measured spectrophotometrically at 540 nm using Tecan Infinite M2000 plate luminometer.

human androgen receptor = human androgen receptor (Homo sapiens, UniProt P10275); assay: Gene reporter assay in AIZ-AR cells, agonist mode (luciferase); type: cell-based
Experimental: AIZ-AR cells were seeded in 96-well plates at density 5x10^4 cells per well. […] After the treatments, cells were lysed and luciferase activity was measured in 96-well plate format using Tecan Infinite M2000 plate luminometer.
Dose-response analyses assays were performed in two different experimental layouts. […] Where appropriate, IC50 (half maximal inhibitory concentration) values were calculated.

androgen receptor [1] = target: androgen receptor; parameters: method as in Wilkinson et al.; settings: published data; ref Wilkinson et al.; cited from earlier work
AIZ-AR cells = assay: in vitro; type: cell-based; settings: 24 h, MTT
Experimental: as §1

androgen receptor [2] = target: androgen receptor; parameters: method as in Sedlak et al.; settings: published data; ref Sedlak et al.; cited from earlier work
[3] = log c -5, 24 h, MTT, read-out: % of viability
[4] = log c -6, 24 h, MTT, read-out: % of viability
[5] = log c -7, 24 h, MTT, read-out: % of viability
[6] = log c -8, 24 h, MTT, read-out: % of viability
[7] = log c -9, 24 h, MTT, read-out: % of viability
[8] = log c -10, 24 h, MTT, read-out: % of viability

human androgen receptor, sequence (P10275 whole entry): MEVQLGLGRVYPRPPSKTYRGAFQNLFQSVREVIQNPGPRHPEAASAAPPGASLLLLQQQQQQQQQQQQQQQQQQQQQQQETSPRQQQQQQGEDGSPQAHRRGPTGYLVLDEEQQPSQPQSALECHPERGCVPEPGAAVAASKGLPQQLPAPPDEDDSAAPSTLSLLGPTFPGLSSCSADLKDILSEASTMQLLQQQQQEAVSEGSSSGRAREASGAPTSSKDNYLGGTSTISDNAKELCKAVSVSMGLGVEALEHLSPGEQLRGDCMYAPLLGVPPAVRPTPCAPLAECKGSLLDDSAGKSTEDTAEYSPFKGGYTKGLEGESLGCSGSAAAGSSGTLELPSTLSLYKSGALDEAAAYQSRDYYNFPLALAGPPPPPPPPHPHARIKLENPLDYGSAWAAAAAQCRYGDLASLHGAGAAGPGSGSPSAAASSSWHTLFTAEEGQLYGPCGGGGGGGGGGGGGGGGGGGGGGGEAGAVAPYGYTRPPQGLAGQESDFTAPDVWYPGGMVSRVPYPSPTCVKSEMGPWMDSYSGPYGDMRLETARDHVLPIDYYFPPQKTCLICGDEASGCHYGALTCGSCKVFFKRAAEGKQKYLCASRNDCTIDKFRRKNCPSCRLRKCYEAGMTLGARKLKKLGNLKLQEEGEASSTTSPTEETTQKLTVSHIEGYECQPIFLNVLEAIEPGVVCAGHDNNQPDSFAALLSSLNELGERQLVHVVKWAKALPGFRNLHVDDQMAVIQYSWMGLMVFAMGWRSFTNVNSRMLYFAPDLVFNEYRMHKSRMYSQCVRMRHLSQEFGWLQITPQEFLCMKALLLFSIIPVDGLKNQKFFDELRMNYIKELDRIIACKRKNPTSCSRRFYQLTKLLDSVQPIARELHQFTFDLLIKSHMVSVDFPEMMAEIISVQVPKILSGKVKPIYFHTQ

SMILES | viability at 24 h, 0.1 nM (in vitro) [%] | viability at 24 h, 1 nM (in vitro) [%] | viability at 24 h, 10 nM (in vitro) [%] | viability at 24 h, 100 nM (in vitro) [%] | viability at 24 h, 1 μM (in vitro) [%] | viability at 24 h, 10 μM (in vitro) [%] | other results
C#C[C@]1(O)CC[C@H]2[C@@H]3CCC4=Cc5oncc5C[C@]4(C)[C@H]3CC[C@@]21C [Danazol] | 100 | 106 ± 1.5 | 108 ± 6.9 | 109 ± 10.6 | 108 ± 11.6 | 114 ± 12.1 | –
CC(=O)O[C@]1(C(C)=O)CC[C@H]2[C@@H]3C=C(Cl)C4=CC(=O)[C@@H]5C[C@@H]5[C@]4(C)[C@H]3CC[C@@]21C [Cyproterone acetate, cyproterone acetate] | 100 | 105 ± 1.7 | 105 ± 2 | 106 ± 5.7 | 99.4 ± 7.8 | 89.5 ± 6.6 | –
C[C@]12CC[C@H]3[C@@H](CCC4=CC(=O)CC[C@@]43C)[C@@H]1CC[C@@H]2O [Testosterone, testosterone] | – | – | – | – | – | – | viability at 24 h, 10 μM (in vitro; [3]): 105.3 ± 1%; viability at 24 h, 1 μM (in vitro; [4]): 105 ± 6.9%; viability at 24 h, 100 nM (in vitro; [5]): 103 ± 5.6%; viability at 24 h, 10 nM (in vitro; [6]): 108 ± 4.8%; viability at 24 h, 1 nM (in vitro; [7]): 108.6 ± 1%; viability at 24 h, 0.1 nM (in vitro; [8]): 100%
C[C@H]1C[C@@H]2[C@H]([C@@H](O)C[C@@]3(C)[C@H]2CC[C@]3(O)C(=O)CO)[C@@]2(C)C=CC(=O)C=C12 [Methyl-prednisolone, methylprednisolone] | 100 | 107 ± 3.1 | 111 ± 9.4 | 105 ± 8.9 | 105 ± 14.3 | 105 ± 16 | Log EC50 (human androgen receptor; Clone 8, 24 h): -7.60 ± 0.43; Log EC50 (human androgen receptor; Clone 14, 24 h): -7.48 ± 0.30; Literature Log EC50 (androgen receptor [1]): -8.75
CC(=O)[C@H]1CC[C@H]2[C@@H]3CCC4=CC(=O)CC[C@]4(C)[C@H]3CC[C@]12C [17α-progesterone] | – | – | – | – | – | – | % of viability (AIZ-AR cells; log c -5): 92.0 ± 3.7%; % of viability (AIZ-AR cells; log c -6): 92.0 ± 3.7%; % of viability (AIZ-AR cells; log c -7): 95.0 ± 4.0%; % of viability (AIZ-AR cells; log c -8): 95.0 ± 4.0%; % of viability (AIZ-AR cells; log c -9): 98.2 ± 2.6%
C[C@]12C[C@H](O)[C@H]3[C@@H](CCC4=CC(=O)CC[C@@]43C)[C@@H]1CC[C@@H]2C(=O)CO [Corticosterone, corticosterone] | 100 | 104 | 107 ± 2.5 | 111 ± 5.7 | 109 ± 6.5 | 105 ± 3.4 | –
C[C@]12CC[C@@H]3c4ccc(O)cc4CC[C@H]3[C@@H]1CC[C@@H]2O [17β-estradiole, estradiol] | 100 | 107 ± 4.3 | 110 ± 3.2 | 110 ± 6.2 | 110 ± 6.2 | 116 ± 16.4 | –
C[C@@H]1C[C@H]2[C@@H]3CCC4=CC(=O)C=C[C@]4(C)[C@@]3(F)[C@@H](O)C[C@]2(C)[C@@]1(O)C(=O)CO [Dexamethasone, dexamethasone] | 100 | 99.8 ± 3.9 | 114 ± 2 | 112.7 ± 1.1 | 111 ± 3.4 | 108 ± 2.6 | –
C[C@]12CCC(=O)C=C1CC[C@@H]1[C@@H]2[C@@H](O)C[C@]2(C=O)[C@@H](C(=O)CO)CC[C@@H]12 [Aldosterone, aldosterone] | – | – | – | – | – | – | viability at 24 h, 10 μM (in vitro; [3]): 97 ± 5.4%; viability at 24 h, 1 μM (in vitro; [4]): 98.6 ± 0.8%; viability at 24 h, 100 nM (in vitro; [5]): 99 ± 1.4%; viability at 24 h, 10 nM (in vitro; [6]): 99.4 ± 1%; viability at 24 h, 1 nM (in vitro; [7]): 110 ± 1.4%; viability at 24 h, 0.1 nM (in vitro; [8]): 100%; effect on luciferase activity in agonist mode (human androgen receptor; 24 h): did not significantly increased luciferase activity; Log EC50 (human androgen receptor; Clone 8, 24 h): -6.03 ± 0.04; Log EC50 (human androgen receptor; Clone 14, 24 h): -6.11 ± 0.02; Literature Log EC50 (androgen receptor [2]): > -5.00; Literature Log EC50 (androgen receptor [1]): > -5.00
C[C@]12CCC(=O)C[C@@H]1CC[C@@H]1[C@@H]2CC[C@]2(C)[C@@H](O)CC[C@@H]12 [5α-dihydrotestosterone] | – | – | – | – | – | – | viability at 24 h, 10 μM (in vitro; [3]): 104 ± 2%; viability at 24 h, 1 μM (in vitro; [4]): 108 ± 2.6%; viability at 24 h, 100 nM (in vitro; [5]): 114 ± 5.7%; viability at 24 h, 10 nM (in vitro; [6]): 109 ± 2.1%; viability at 24 h, 1 nM (in vitro; [7]): 108 ± 4.6%; viability at 24 h, 0.1 nM (in vitro; [8]): 100%
CC(=O)S[C@@H]1CC2=CC(=O)CC[C@]2(C)[C@H]2CC[C@@]3(C)[C@@H](CC[C@@]34CCC(=O)O4)[C@H]12 [Spironolactone, spironolactone] | 100 | 108 ± 1.5 | 112 ± 5.7 | 113 ± 10 | 98.9 ± 5.5 | 58.9 ± 2.5 | –
CC/C(=C(/CC)c1ccc(O)cc1)c1ccc(O)cc1 [Diethylstilbestrol, diethylstilbestrol] | 100 | 101 ± 5.1 | 102 ± 7.6 | 102 ± 5.1 | 98 ± 4.3 | 99.9 ± 7 | –
CC/C(=C(\c1ccccc1)c1ccc(OCCN(C)C)cc1)c1ccccc1 [Tamoxifen citrate, tamoxifen citrate salt] | 100 | 103 ± 4.3 | 107 ± 4.6 | 106 ± 3.8 | 88.5 ± 2.4 | 1.7 ± 0.8 | –
C[C@H]1C[C@H]2[C@@H]3CCC4=CC(=O)C=C[C@]4(C)[C@@]3(F)[C@@H](O)C[C@]2(C)[C@@]1(O)C(=O)CO [Betamethasone, betamethasone] | 100 | 105 ± 4 | 110 ± 7.3 | 109 ± 7.9 | 108 ± 14.6 | 101 ± 9.9 | –
C[C@]12C=CC(=O)C=C1CC[C@H]1[C@@H]3C[C@@H](O)[C@](O)(C(=O)CO)[C@@]3(C)C[C@H](O)[C@@]12F [Triamcinolone, triamcinolone] | 100 | 101 ± 4.2 | 100 ± 8.2 | 105 ± 11.4 | 103 ± 11 | 101 ± 5.4 | –
C[C@H]1C[C@H]2[C@@H]3CCC4=CC(=O)C=C[C@]4(C)[C@@]3(Cl)[C@@H](O)C[C@]2(C)[C@@]1(O)C(=O)CO [Beclomethasone, beclomethasone] | – | – | – | – | – | – | % of viability (AIZ-AR cells; log c -5): 92.3 ± 2.1%; % of viability (AIZ-AR cells; log c -6): 98.4 ± 0.9%; % of viability (AIZ-AR cells; log c -7): 109.2 ± 5.7%; % of viability (AIZ-AR cells; log c -8): 106.5 ± 6.1%; % of viability (AIZ-AR cells; log c -9): 99.9 ± 3.9%
CC#C[C@]1(O)CC[C@H]2[C@@H]3CCC4=CC(=O)CCC4=C3[C@@H](c3ccc(N(C)C)cc3)C[C@@]21C [Mifepristone, mifepristone] | 100 | 104 ± 2.8 | 102 ± 9.7 | 104 ± 18.2 | 94.7 ± 9.5 | 41.7 ± 1.1 | –
CC(=O)[C@H]1CC[C@H]2[C@@H]3CCC4=CC(=O)CC[C@]4(C)[C@H]3CC[C@]12C [Progesterone, progesterone] | 100 | 98.7 ± 7.3 | 98.7 ± 12.2 | 99.8 ± 14.1 | 98.1 ± 13.9 | 91 ± 9.5 | –
O=C(c1ccc(OCCN2CCCCC2)cc1)c1c(-c2ccc(O)cc2)sc2cc(O)ccc12 [Raloxifene hydrochloride, raloxifene hydrochloride] | 100 | 103 ± 8.5 | 99.8 ± 4.3 | 106 ± 6.8 | 95.9 ± 10.3 | 7.1 ± 0.2 | –
C[C@]12C=CC(=O)C=C1CC[C@@H]1[C@@H]2[C@@H](O)C[C@@]2(C)[C@H]1CC[C@]2(O)C(=O)CO [Prednisolone, prednisolone] | 100 | 100.7 ± 0.8 | 104 ± 3.7 | 107 ± 5.2 | 104 ± 5.2 | 101 ± 8.3 | –
